# Assay results as given in patent US20040037843A1, “Inducing cellular immune responses to prostate cancer antigens using peptide and nucleic acid compositions” (priority 2003, published 2004).
# Assays:
# Test in all cases: HLA class I binding assay, purified HLA, inhibition of 125I-labelled probe peptide
# HLA-A*0206 = HLA-A*0206 (Homo sapiens, UniProt P04439, D140Y/D185E/D98H/E176V/E277Q/F33Y/G131W/G231S/I119V/I121R/I166T/I218V/L300P/L318F/N151K/N90K/P208A/P217A/Q86G/Q94H/R138H/R169H/T345S); details: A*[…], A2 supermotif cross-reactive binding data
# HLA-A*0201 = HLA-A*0201 (Homo sapiens, UniProt P04439, D140Y/D185E/D98H/E176V/E277Q/G131W/G231S/I119V/I121R/I166T/I218V/L300P/L318F/N151K/N90K/P208A/P217A/Q86G/Q94H/R138H/R169H/T345S); details: A*[…], A2 supermotif cross-reactive binding data
# HLA-A*0203 = HLA-A*0203 (Homo sapiens, UniProt P04439, A173T/D140Y/D185E/D98H/E277Q/G131W/G231S/I119V/I121R/I166T/I218V/L180W/L300P/L318F/N151K/N90K/P208A/P217A/Q86G/Q94H/R138H/R169H/T345S); details: A*[…], A2 supermotif cross-reactive binding data
# HLA-A*0202 = HLA-A*0202 (Homo sapiens, UniProt P04439, D140Y/D185E/D98H/E176V/E277Q/G131W/G231S/I119L/I121R/I166T/I218V/L180W/L300P/L318F/N151K/N90K/P208A/P217A/Q67R/Q86G/Q94H/R138H/R169H/T345S); details: A2 supermotif cross-reactive binding data
# HLA-A*6802 = HLA-A*6802 (Homo sapiens, UniProt P04439, A269V/D140Y/D185E/E176V/E277Q/E87N/F33Y/G231S/I121R/I166T/I218V/L180W/L300P/L318F/N151K/P208A/P217A/Q86R/R138H/R169H/S129P/T345S/V36M); details: A2 supermotif cross-reactive binding data; read-out: A*6802 nM
IC50 (HLA-A*0206),IC50 (HLA-A*0201),IC50 (HLA-A*0203),IC50 (HLA-A*0202),IC50 (HLA-A*6802),Compound
5.2 nM,13 nM,2.8 nM,6.3 nM,205 nM,CC(C)C[C@H](NC(=O)[C@H](CO)NC(=O)[C@@H](NC(=O)[C@H](CS)NC(=O)[C@H](CCC(N)=O)NC(=O)[C@H](CC(C)C)NC(=O)[C@@H](N)CO)C(C)C)C(=O)N[C@@H](Cc1c[nH]cn1)C(=O)N[C@@H](CC(C)C)C(=O)N[C@H](C(=O)O)C(C)C [Peptide 1418.52]
37 nM,26 nM,5.3 nM,1.3 nM,860 nM,CSCC[C@H](NC(=O)[C@H](CC(=O)O)NC(=O)[C@H](CC(N)=O)NC(=O)[C@H](CO)NC(=O)[C@H](CC(C)C)NC(=O)[C@H](CC(C)C)NC(=O)[C@@H](N)Cc1c[nH]cn1)C(=O)N[C@@H](CS)C(=O)N[C@@H](C)C(=O)N[C@@H](CCCNC(=N)N)C(=O)N[C@H](C(=O)O)C(C)C [Peptide 1418.67]
446 nM,263 nM,71 nM,4.9 nM,5000 nM,CC(C)C[C@H](NC(=O)[C@H](CC(C)C)NC(=O)[C@H](Cc1c[nH]cn1)NC(=O)[C@H](CC(C)C)NC(=O)[C@H](CO)NC(=O)[C@@H](NC(=O)[C@H](CS)NC(=O)[C@H](CCC(N)=O)NC(=O)[C@H](CC(C)C)NC(=O)[C@@H](N)CO)C(C)C)C(=O)O [Peptide 1419.66]
2310 nM,8.6 nM,10 nM,0.8 nM,2160 nM,H-SLHLLSNDMCV-OH [Peptide 1418.66]
